Legend:
Format in all cases: in vivo, human
[1] = Phase 2b study, vital sign (HR, SBP, DBP) changes and orthostatic AEs; settings: tolterodine 4 mg
Text: None led to discontinuation. The overall incidence of orthostatic symptoms was low.
Small differences in the percent of subjects exceeding categorical heart rate and blood pressure thresholds for vibegron were similar to those in the tolterodine arm.

[2] = system: men and women with overactive bladder; assay: extension study, OAB-q LF coping subscore at Week 52; settings: for OAB-q LF Coping Subscore, Week 52 Mean: Full Analysis Set Extension; for OAB-q LF Coping Subscore, Change from Baseline Mean at Week 52: baseline from parent study
[3] = Phase 3 study (75 mg), adverse events
Procedure: Study assessments of safety included adverse events, physical examinations, vital signs (and weight), and clinical laboratory tests
An adverse event is any untoward medical occurrence in a patient or clinical investigation patient, temporally associated with the use of a medicinal product, whether or not considered related to the medicinal product.
Adverse Events of Clinical Interest for this study included:
Safety analyses were conducted using the SAF and summarized by treatment group as treated. The treatment-emergent period is defined as the period of time from the first dose date of the double blinded Study Treatment through 28 days after the last dose of Study Treatment, or the date of initiation of another investigational agent or surgical intervention or rollover to the extension study, whichever occurs first. Safety was assessed through summaries of adverse events, the frequency of treatment discontinuations due to adverse events, and clinical laboratory evaluations.

Cc1ccc(O)c([C@H](CCN(C(C)C)C(C)C)c2ccccc2)c1 [Tolterodine ER, tolterodine, reference compound]
SBP change from baseline, mean (95% CI) maximum, week 1 to 8 [1]: 7.29 (6.01, 8.57) mm Hg | SBP change from baseline, mean (95% CI), week 1 [1]: 0.04 (−1.36, 1.43) mm Hg | OAB-q LF Coping Subscore, Week 52 Mean ([2]; 40-Week treatment group): 82.5 | OAB-q LF Coping Subscore, Change from Baseline Mean at Week 52 ([2]; 40-Week treatment group): 24.7 | OAB-q LF Coping Subscore, Week 52 Mean ([2]; 52-Week treatment group): 81.8 | OAB-q LF Coping Subscore, Change from Baseline Mean at Week 52 ([2]; 52-Week treatment group): 22.1 | AE: ALT increase ([3]; 12-week study): 1 (0.2) n (%) | AE: AST increase ([3]; 12-week study): 1 (0.2) n (%) | AE: Atrial fibrillation ([3]; 12-week study): 1 (0.2) n (%) | AE: Bilirubin increased ([3]; 12-week study): 1 (0.2) n (%) | AE: Blood creatinine increased ([3]; 12-week study): 1 (0.2) n (%) | AE: Blood pressure diastolic increased ([3]; 12-week study): 1 (0.2%) n (%) | AE: Blood pressure increased ([3]; 12-week study): 8 (1.9) n (%) | AE: Cardiac failure congestive ([3]; 12-week study): 0 n (%) | AE: Cerebrovascular accident ([3]; 12-week study): 1 (0.2) n (%) | AE: Chest discomfort ([3]; 12-week study): 0 n (%) | AE: Chest pain ([3]; 12-week study): 0 n (%) | AE: Chronic kidney disease ([3]; 12-week study): 0 n (%) | AE: Constipation ([3]; 12-week study): 6 (1.4) n (%) | AE: Cystitis ([3]; 12-week study): 1 (0.2) n (%) | AE: Diarrhea ([3]; 12-week study): 9 (2.1) n (%) | AE: Dizziness ([3]; 12-week study): 4 (0.9) n (%) | AE: Drug hypersensitivity ([3]; 12-week study): 0 n (%) | AE: Dry mouth ([3]; 12-week study): 28 (6.5) n (%) | AE: Dysuria ([3]; 12-week study): 0 n (%) | AE: Escherichia urinary-tract infection ([3]; 12-week study): 1 (0.2%) n (%) | AE: Fatigue ([3]; 12-week study): 6 (1.4) n (%) | AE: Glomerular filtration rate decreased ([3]; 12-week study): 2 (0.5) n (%) | AE: Headache ([3]; 12-week study): 11 (2.6) n (%) | AE: Hepatic enzyme increased ([3]; 12-week study): 1 (0.2) n (%) | AE: Hot flush ([3]; 12-week study): 1 (0.2) n (%) | AE: Hyperglycemia ([3]; 12-week study): 2 (0.5) n (%) | AE: Hypertension ([3]; 12-week study): 11 (2.6) n (%) | AE: Hypotension ([3]; 12-week study): 1 (0.2) n (%) | AE: Nasopharyngitis ([3]; 12-week study): 11 (2.6) n (%) | AE: Nausea ([3]; 12-week study): 5 (1.2) n (%) | AE: Pollakiuria ([3]; 12-week study): 0 n (%) | AE: Positional vertigo ([3]; 12-week study): 1 (0.2) n (%) | AE: Residual urine volume increased ([3]; 12-week study): 6 (1.4) n (%) | AE: Somnolence ([3]; 12-week study): 2 (0.5) n (%) | AE: Syncope ([3]; 12-week study): 1 (0.2) n (%) | AE: Tachycardia ([3]; 12-week study): 1 (0.2) n (%) | AE: Transaminases increased ([3]; 12-week study): 0 n (%) | AE: Type 2 diabetes mellitus ([3]; 12-week study): 0 n (%) | AE: Urinary retention ([3]; 12-week study): 3 (0.7) n (%) | AE: Urinary tract infection ([3]; 12-week study): 25 (5.8) n (%) | AE: Vertigo ([3]; 12-week study): 1 (0.2) n (%) | AE: Back pain ([3]; patients ≥75 years): 2.1% | AE: Diarrhea ([3]; patients ≥75 years): 4.2% | AE: Dyspnea ([3]; patients ≥75 years): 0% | AE: Nausea ([3]; patients ≥75 years): 0% | AE: Rash ([3]; patients ≥75 years): 0% | AE: Somnolence ([3]; patients ≥75 years): 2.1% | AE: Upper respiratory tract infection ([3]; patients ≥75 years): 0% | AE: Urinary retention ([3]; patients ≥75 years): 4.2% | AE: Urinary tract infection ([3]; patients ≥75 years): 8.3% | Overall AE rate ([3]; patients ≥75 years): 50.0% | Any AE of clinical interest, % ([3]; safety population): (8.8%) | Patients with at least one treatment emergent serious AEs, % ([3]; safety population): (2.3) % | SAEs resulting in death, % ([3]; safety population): (0.2) % | SAEs: Hospitalization, % ([3]; safety population): (1.9) % | SAEs: other serious criteria, % ([3]; safety population): (0.5) % | Patients with at least one treatment emergent adverse events, % ([3]; safety population, 12-week study): (38.6) % | Tachycardia rate ([3]; tolterodine ER 4 mg once daily, 12 weeks): 0.2% | Patients with at least one Serious AE ([3]; vibegron 75 mg or tolterodine ER 4 mg once daily, 12 weeks): 2.3%

— patent US20230027066A1 (Urovant Sciences GmbH, priority 2019, published 2023)
